We go through 15 compounds from patent publication US8173609B2, “Macrolides useful against inflammatory and allergic diseases” (Basilea Pharmaceutica AG, priority 2006, dated 2012).

Usually IC50 stands for the point on the concentration scale where inhibition reaches its midpoint. Lower therefore signals inhibition by little substance.

The first assay has as its system human PDE4. The experiment in a line: PDE4 inhibition, in vitro enzymatic IMAP FP assay. It counts as biochemical. The note with it: PDE4 partially purified from human monocytic U-937 cells; fluorescence polarization. The method, then:
PDE4 specifically hydrolyzes cAMP and releases the product AMP. The potency of PDE inhibition by said agents was determined in an in vitro enzymatic assay. The assay is commercially available (IMAP™ FP assay Molecular Devices Corp.) and was optimized for the use of human PDE4. Fluorescently labeled cAMP was hydrolyzed by PDE4 and in a second step, binding of labeled product to a large binding partner allowed product detection by fluorescence polarization (FP) measurements.
PDE4 was partially purified from undifferentiated human monocytic cells (U-937) according to Thorpy et al. 1992 (J. Pharmacol. Exp. Ther. 263: 1195). […] In addition, PDE4 preparations were validated by inhibition studies with PDE4-specific and unspecific PDE inhibitors.
Stock solutions of test compounds were made in DMSO and diluted in assay buffer (10 mM Tris-HCl, 10 mM MgCl2, 0.1% BSA 0.05% NaN3, pH 7.2) to the desired concentrations. The solutions used in the assay contained test compound in assay buffer with 2% DMSO.
10 μl of substrate (at a concentration recommended by the manufacturer) were mixed with 5 μl of appropriately diluted PDE and 5 μl of test compound solution. 5 μl of reaction buffer with 2% DMSO were used for control reactions. […] After incubation for 90 minutes at room temperature, 60 μl of binding reagent were added as specified by the manufacturer. Binding was allowed to proceed for 30 minutes and fluorescence polarization was measured. Dose dependence of PDE inhibition was measured by assaying dilution series of test compounds in duplicates. IC50 values were determined from the measured activities by curve fitting.
Background: Fluorescence polarisation rises when a labelled molecule tumbles more slowly, as on binding a larger partner.
`CCC1OC(=O)C(C)C(OC2CC(C)(OC)C(O)C(C)O2)C(C)C(OC2OC(C)CC(N(C)C)C2O)C(C)(OC)CC(C)C(=O)C(C)C2C(SCCn3c(CCc4cccnc4)nc4c(N)ncnc43)C(=O)OC12C` (stereo not shown) [Example 1, compound of formula I where R1 is [2-[6-Amino-8-(2-pyridin-3-yl-ethyl)-purin-9-yl]ethyl]thio, R2 and R3 taken together form a C═O group and R4 is methyl] registered an IC50 of 13.4 µM. This lies in the double-digit micromolar range.
Still for that read-out and setting: in the case of `CCC1OC(=O)C(C)C(OC2CC(C)(OC)C(O)C(C)O2)C(C)C(OC2OC(C)CC(N(C)C)C2O)C(C)(OC)CC(C)C(=O)C(C)C2C(SCCn3c(Nc4cccnc4)nc4c(N)ncnc43)C(=O)OC12C` (stereo not shown) [Example 2, compound of formula I where R1 is [2-[6-Amino-8-(pyridin-3-ylamino)-purin-9-yl]ethyl]thio, R2 and R3 taken together form a C═O Group and R4 is Methyl] it was 3.9 µM; in that of `CCC1OC(=O)C(C)C(OC2CC(C)(OC)C(O)C(C)O2)C(C)C(OC2OC(C)CC(N(C)C)C2O)C(C)(OC)CC(C)C(=O)C(C)C2C(SCCN(C(=O)c3ccncc3)c3ccc(OC)c(OC4CCCC4)c3)C(=O)OC12C` (stereo not shown) [Example 3, Compound of Formula I where R1 is [2-[(3cyclopentyloxy-4-methoxy-phenyl)-(pyridin-4-yl-carbonyl)-amino]ethyl]thio, R2 and R3 taken together form a C═O Group and R4 is Methyl], 3.4 µM; in that of `CCC1OC(=O)C(C)C(OC2CC(C)(OC)C(O)C(C)O2)C(C)C(OC2OC(C)CC(N(C)C)C2O)C(C)(OC)CC(C)C(=O)C(C)C2C(SCCN(Cc3ccncc3)c3ccc(OC)c(OC4CCCC4)c3)C(=O)OC12C` (stereo not shown) [Example 4, compound of formula I where R1 is [2-[(3-cyclopentyloxy-4-methoxy-phenyl)-(pyridin-4-ylmethyl)-amino]-ethyl]thio, R2 and R3 taken together form a C═O Group and R4 is Methyl], 0.28 µM.
For `CCC1OC(=O)C(C)C(OC2CC(C)(OC)C(O)C(C)O2)C(C)C(OC2OC(C)CC(N(C)C)C2O)C(C)(OC)CC(C)C(=O)C(C)C2C(SCCN(Cc3cccnc3)c3ccc(OC)c(OC4CCCC4)c3)C(=O)OC12C` (stereo not shown) [Example 5, Compound of Formula I where R1 is [2-[(3-cyclopentyloxy-4-methoxy-phenyl)-(pyridin-3-ylmethyl)-amino]-ethyl]thio, R2 and R3 taken together form a C═O Group and R4 is Methyl], it took 0.85 µM to reach half-maximal inhibition (IC50). This IC50 lies about 3-fold higher than the previous one.
Regarding `CCC1OC(=O)C(C)C(OC2CC(C)(OC)C(O)C(C)O2)C(C)C(OC2OC(C)CC(N(C)C)C2O)C(C)(OC)CC(C)C(=O)C(C)C2C(SCCCc3c(C(=O)Nc4ccncc4)ccc(OC)c3OC)C(=O)OC12C` (stereo not shown) [Example 7, Compound of Formula I where R1 is [3-[2,3-dimethoxy-6-(pyridin-4-yl-amino-carbonyl)phenyl]-propyl]thio, R2 and R3 taken together form a C═O Group and R4 is Methyl], the IC50 stood at 7.6 µM. Against the preceding compound, the IC50 is about 8.9-fold higher.
The compound `CCC1OC(=O)C(C)C(OC2CC(C)(OC)C(O)C(C)O2)C(C)C(OC2OC(C)CC(N(C)C)C2O)C(C)(OC)CC(C)C(=O)C(C)C2C(SCCCn3cnc4c(N)ncc(C(=O)NCC(=O)OC)c43)C(=O)OC12C` (stereo not shown) [Example 9, compound of formula I where R1 is [3-[4-amino-7-([methoxycarbonylmethyl]-amino-carbonyl)-imidazo[4,5-c]pyridin-1-yl]-propyl]thio, R2 and R3 taken together form a C═O Group and R4 is Methyl] had a half-maximal inhibitory concentration (IC50) of 24.2 µM.
Still for that read-out and setting: to `CC[C@H]1OC(=O)[C@H](C)[C@@H](O[C@H]2C[C@@](C)(OC)[C@@H](O)[C@H](C)O2)[C@H](C)[C@@H](O[C@@H]2O[C@H](C)C[C@H](N(C)C)[C@H]2O)[C@](C)(OC)C[C@@H](C)C(=O)[C@H](C)[C@H]2[C@H](SCCn3cnc4c(N)ncc(C(=O)Nc5ccncc5)c43)C(=O)O[C@@]21C` [Example 10, Compound of Formula I where R1 is [2-[4-amino-7-(pyridin-4-yl-amino-carbonyl)-imidazo[4,5-c]pyridin-1-yl]-ethyl]thio, R2 and R3 taken together form a C═O Group and R4 is Methyl] belongs 1 µM.
In turn, `CC[C@H]1OC(=O)[C@H](C)[C@@H](O[C@H]2C[C@@](C)(OC)[C@@H](O)[C@H](C)O2)[C@H](C)[C@@H](O[C@@H]2O[C@H](C)C[C@H](N(C)C)[C@H]2O)[C@](C)(OC)C[C@@H](C)C(=O)[C@H](C)[C@H]2[C@H](SCCn3cnc4c(N)ncc(C(=O)Nc5c(Cl)cncc5Cl)c43)C(=O)O[C@@]21C` [Example 11, compound of formula I where R1 is [2-[4-amino-7-(3,5-dichloro-pyridin-4-yl-amino-carbonyl)-imidazo[4,5-c]pyridin-1-yl]-ethyl]thio, R2 and R3 taken together form a C═O Group and R4 is Methyl] showed an IC50 of 0.008 µM.
Still for that read-out and setting: in the case of `CC[C@H]1OC(=O)[C@H](C)[C@@H](O[C@H]2C[C@@](C)(OC)[C@@H](O)[C@H](C)O2)[C@H](C)[C@@H](O[C@@H]2O[C@H](C)C[C@H](N(C)C)[C@H]2O)[C@](C)(OC)C[C@@H](C)C(=O)[C@H](C)[C@H]2[C@H](SCCn3cnc4c(N)nc(NCc5cccnc5)nc43)C(=O)O[C@@]21C` [Example 12, Compound of Formula I where R1 is [2-[6-amino-2-[[(3-pyridyl)methyl]amino]-purin-9-yl]ethyl]thio, R2 and R3 taken together form a C═O Group and R4 is Methyl] it was 3.8 µM; in that of `CC[C@H]1OC(=O)[C@H](C)[C@@H](O[C@H]2C[C@@](C)(OC)[C@@H](O)[C@H](C)O2)[C@H](C)[C@@H](O[C@@H]2O[C@H](C)C[C@H](N(C)C)[C@H]2O)[C@](C)(OC)C[C@@H](C)C(=O)[C@H](C)[C@H]2[C@H](SCCn3cnc4c(N)nc(NCc5ccncc5)nc43)C(=O)O[C@@]21C` [Example 13, Compound of Formula I where R1 is [2-[6-amino-2-[[(4-pyridyl)methyl]amino]-purin-9-yl]ethyl]thio, R2 and R3 taken together form a C═O Group and R4 is Methyl], 2.6 µM.
Consider `CSCCn1cnc2c(N)ncc(C(=O)Nc3c(Cl)cncc3Cl)c21` [reference compound], for which the IC50 stood at 3.6 µM.
Take “compound of formula I where R1 is [2-[(5-(3,5-dichloro-pyridin-4-yl-amino-carbonyl)-1-ethyl-1H-pyrazolo[3,4-b]pyridin-4-ylamino]-ethyl]thio, R2 and R3 taken together form a C═O Group and R4 is Methyl [Example 6]”: the half-inhibitory concentration (IC50) turned out to be 0.37 µM.
On the same count and under the same terms, to “compound of formula I where R1 is [3-[4-Amino-7-(pyridin-4-yl-amino-carbonyl)-imidazo[4,5-c]pyridin-1-yl]-propyl]thio, R2 and R3 taken together form a C═O Group and R4 is Methyl [Example 8]” belongs 4.7 µM.

The assay is the same for the next values; noted with them: ratio of Example 11 IC50 to IC50 of free substituent drawing 48.
On to `CC[C@H]1OC(=O)[C@H](C)[C@@H](O[C@H]2C[C@@](C)(OC)[C@@H](O)[C@H](C)O2)[C@H](C)[C@@H](O[C@@H]2O[C@H](C)C[C@H](N(C)C)[C@H]2O)[C@](C)(OC)C[C@@H](C)C(=O)[C@H](C)[C@H]2[C@H](SCCn3cnc4c(N)ncc(C(=O)Nc5c(Cl)cncc5Cl)c43)C(=O)O[C@@]21C` [Example 11, compound of formula I where R1 is [2-[4-amino-7-(3,5-dichloro-pyridin-4-yl-amino-carbonyl)-imidazo[4,5-c]pyridin-1-yl]-ethyl]thio, R2 and R3 taken together form a C═O Group and R4 is Methyl], for which the “IC50(PDE4) relative to the IC50(PDE4) for the macrolide substituent in free form” value was “about one five hundredth”.

The same assay, now with this note: up to a concentration of 50 μM in the assay used in the examples.
For `CC[C@H]1OC(=O)[C@H](C)[C@@H](O[C@H]2C[C@@](C)(OC)[C@@H](O)[C@H](C)O2)[C@H](C)[C@@H](O[C@@H]2O[C@H](C)C[C@H](N(C)C)[C@H]2O)[C@](C)(OC)C[C@@H](C)C(=O)[C@H](C)[C@H]2[C@H](SC)C(=O)O[C@@]21C` [reference compound], the PDE4-inhibiting activity result is given as “does not show any PDE4-inhibiting activity”.
